PubChem BioAssay AID651801 (Broad Institute, 2012)
Active and inactive are the calls of the source.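 The calls were made as follows: active = signal falling with dose and AC50 at most twice the top valid tested dose; inconclusive = flat fit with inhibition of 30 to 70%, or poor fit; inactive = the rest, plus effects in the rising direction.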

Molecular target: Kelch-like ECH-associated protein 1 (Homo sapiens) (UniProt Q14145)
Experiment: disruptors of Keap1 Kelch-Nrf2 peptide binding – biochemical, fluorescence polarization, dry powder, set 2, dose response (AID 651801)
Conditions: Keap1 Kelch/FITC-Nrf2 peptide fluorescence polarization

Kelch-like ECH-associated protein 1 (Homo sapiens), sequence (Q14145 whole entry, looked up): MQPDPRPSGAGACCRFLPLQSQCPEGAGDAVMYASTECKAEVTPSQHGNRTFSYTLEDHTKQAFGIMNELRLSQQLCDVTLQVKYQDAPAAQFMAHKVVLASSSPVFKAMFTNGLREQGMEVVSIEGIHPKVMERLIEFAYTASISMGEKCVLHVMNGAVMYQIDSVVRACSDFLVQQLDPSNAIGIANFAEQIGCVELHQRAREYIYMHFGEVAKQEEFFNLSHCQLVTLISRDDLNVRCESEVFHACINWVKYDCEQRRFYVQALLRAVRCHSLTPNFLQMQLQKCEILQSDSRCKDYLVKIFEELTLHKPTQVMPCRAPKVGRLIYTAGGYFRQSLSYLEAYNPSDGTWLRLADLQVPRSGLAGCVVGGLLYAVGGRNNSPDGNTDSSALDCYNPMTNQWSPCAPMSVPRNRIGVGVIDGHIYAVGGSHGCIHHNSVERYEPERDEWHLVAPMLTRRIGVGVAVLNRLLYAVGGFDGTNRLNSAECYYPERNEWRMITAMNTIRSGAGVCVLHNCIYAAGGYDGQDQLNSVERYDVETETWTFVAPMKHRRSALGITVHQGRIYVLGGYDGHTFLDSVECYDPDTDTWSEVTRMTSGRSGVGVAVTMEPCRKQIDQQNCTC

AC50, active:
COC(=O)C(C(=O)OC)c1cc(NS(=O)(=O)c2c(C)cc(C)cc2C)c2ccccc2c1O 39.5 µM
Cc1ccc(S(=O)(=O)Nc2cc(C(C(=O)OC(C)C)C(=O)C(F)(F)F)c(O)c3ccccc23)cc1 (stereo unspecified) 7.4 µM
Cc1ccccc1S(=O)(=O)Nc1cc(C(C(=O)OC(C)C)C(=O)C(F)(F)F)c(O)c2ccccc12 (stereo unspecified) 3.56 µM
Cc1cc(C)c(S(=O)(=O)Nc2cc(C(C(=O)OC(C)C)C(=O)C(F)(F)F)c(O)c3ccccc23)c(C)c1 (stereo unspecified) 0.798 µM
O=C(O)Cc1ccccc1C(=O)N1CCc2ccccc2[C@H]1CN1C(=O)c2ccccc2C1=O 23.6 µM
O=C(O)C1CCCCC1C(=O)N1CCc2ccccc2C1CN1Cc2ccccc2C1=O (stereo unspecified) 23.6 µM
CC(C)OC(=O)C(C(=O)C(F)(F)F)c1cc(NS(=O)(=O)c2ccccc2)c2ccccc2c1O (stereo unspecified) 30 µM
Cc1ccc(S(=O)(=O)Nc2cc(C(C(=O)OC(C)C)C(=O)C(F)(F)F)c(O)c3ccccc23)c(C)c1 (stereo unspecified) 2.43 µM

AC50, inactive:
O=C(O)C1CCCCC1C(=O)N1CCc2ccccc2C1CN1C(=O)[C@H]2CCCC[C@H]2C1=O (stereo partly specified) > 100 µM
O=C(NCCc1ccccc1)c1ccccc1C(=O)NC[C@@H]1c2ccccc2CCN1C(=O)C1CCCCC1C(=O)O (stereo partly specified) > 100 µM
O=C(O)C1CCCCC1C(=O)N1CCc2ccccc2C1CN1C(=O)Cc2ccccc2C1=O (stereo unspecified) > 100 µM
O=C(NC[C@@H]1c2ccccc2CCN1C(=O)[C@@H]1CCCC[C@@H]1C(=O)O)c1ccc(CN2CCOCC2)cc1 > 100 µM
Cc1ccc(S(=O)(=O)NC(=O)[C@@H]2c3ccccc3CCN2C(=O)[C@@H]2CCCC[C@@H]2C(=O)O)cc1 > 100 µM
O=C(NCCO)c1ccccc1C(=O)NC[C@@H]1c2ccccc2CCN1C(=O)C1CCCCC1C(=O)O (stereo partly specified) > 100 µM
NC(=O)c1ccccc1C(=O)NC[C@@H]1c2ccccc2CCN1C(=O)[C@@H]1CCCC[C@@H]1C(=O)O > 100 µM
O=C(O)[C@H]1C2C=CC(C2)[C@H]1C(=O)N1CCc2ccccc2C1CN1C(=O)c2ccccc2C1=O (stereo partly specified) > 100 µM
O=C(O)[C@H]1CCCC[C@H]1C(=O)N1CCC2=C(CCCC2)C1CN1C(=O)c2ccccc2C1=O (stereo partly specified) > 100 µM

Same assay, conditions: Keap1 Kelch/FITC-Nrf2 peptide fluorescence polarization; at 12 µM (top of the series)

Activity change, negative = inhibition, inactive:
O=C1c2ccccc2C(=O)N1CC1c2ccccc2CCN1C(=O)Cc1ccccc1 (stereo unspecified)

Same assay, conditions: Keap1 Kelch/FITC-Nrf2 peptide fluorescence polarization; at 50 µM (top of the series)

Activity change, negative = inhibition, inactive:
O=C(O)[C@@H]1CCCN1C(=O)N1CCc2ccccc2[C@H]1CN1C(=O)c2ccccc2C1=O
O=C(Cc1ccccc1)NC[C@@H]1c2ccccc2CCN1C(=O)[C@@H]1CCCC[C@@H]1C(=O)O
O=C(O)C1CCCCC1C(=O)NCC1c2ccccc2CCN1C(=O)Cc1ccccc1 (stereo unspecified)
Cc1ccc(S(=O)(=O)NNc2nc(NCC(N)=O)nc3ccccc23)cc1
Cc1cc(C)c(S(=O)(=O)Nc2ncnc3ccccc23)c(C)c1
O=C(O)CCC(=O)N1CCc2ccccc2C1CN1C(=O)c2ccccc2C1=O (stereo unspecified)
O=C(O)C1CCCCC1C(=O)N1CCc2ccccc2[C@H]1C(=O)NC12CC3CC(CC(C3)C1)C2 (stereo partly specified)
O=C(Oc1cc(CN2C(=O)c3ccccc3C2=O)c2ccccc2[n+]1[O-])c1cccc(Cl)c1
C=CC(=O)NC[C@@H]1c2ccccc2CCN1C(=O)[C@@H]1CCCC[C@@H]1C(=O)O
O=C1c2ccccc2C(=O)N1C[C@@H]1c2ccccc2CCN1C(=O)OCc1ccccc1
COc1ccccc1CCNC(=O)[C@@H]1c2ccccc2CCN1C(=O)C1CCCCC1C(=O)O (stereo partly specified)
COC(=O)[C@H]1CCCC[C@H]1C(=O)N1CCc2ccccc2[C@H]1CN1C(=O)c2ccccc2C1=O
NC(=O)[C@H]1CCCC[C@H]1C(=O)N1CCc2ccccc2[C@H]1CN1C(=O)c2ccccc2C1=O
O=C(O)C1CCCCC1C(=O)N1CCCCC1CN1C(=O)c2ccccc2C1=O (stereo unspecified)
O=C(NC[C@@H]1c2ccccc2CCN1C(=O)[C@@H]1CCCC[C@@H]1C(=O)O)OCC1c2ccccc2-c2ccccc21
COc1ccc(CCN=C2C=C(NS(=O)(=O)c3c(C)cc(C)cc3C)c3ccccc3C2=O)cc1
Cc1ccc(S(=O)(=O)NC2=CC(=N[C@@H](C)C(=O)OC(C)(C)C)C(=O)c3ccccc32)c(C)c1
O=C(O)c1ccccc1C(=O)NC[C@@H]1c2ccccc2CCN1C(=O)[C@@H]1CCCC[C@@H]1C(=O)O
O=C(NCCCN1CCOCC1)c1ccccc1C(=O)NC[C@@H]1c2ccccc2CCN1C(=O)C1CCCCC1C(=O)O (stereo partly specified)
O=C1c2ccccc2C(=O)N1C[C@H]1NCCc2ccccc21
CCOC(=O)C(C(=O)OCC)c1cc(CNS(=O)(=O)c2ccc(C)cc2C)c2ccccc2n1
Cc1cc(C)c(S(=O)(=O)Nc2cc(C(C(=O)OCc3ccccc3)C(=O)OCc3ccccc3)c(O)c3ccccc23)c(C)c1
COC(=O)[C@@H]1CCCC[C@@H]1C(=O)N1CCc2ccccc2[C@H]1CN1C(=O)c2ccccc2C1=O
O=C(NC[C@@H]1c2ccccc2CCN1C(=O)[C@@H]1CCCC[C@@H]1C(=O)O)c1ccc(CCl)cc1
O=C(O)[C@H]1CCCC[C@H]1C(=O)N1CCc2ccccc2C1 (racemic)
O=C(O)CCCC(=O)N1CCc2ccccc2C1CN1C(=O)c2ccccc2C1=O (stereo unspecified)
O=C(O)[C@H]1CCCC[C@H]1C(=O)N1CCc2ccccc2[C@H]1CNS(=O)(=O)c1ccc([N+](=O)[O-])cc1
O=C(O)[C@H]1CCCC[C@H]1C(=O)NC(CN1C(=O)c2ccccc2C1=O)c1ccccc1 (stereo partly specified)
Cc1ccc(S(=O)(=O)NC(=O)[C@@H]2c3ccccc3CCN2C(=O)[C@@H]2CCCC[C@@H]2C(=O)O)cc1
O=C(O)C1CCCCC1C(=O)Nc1ccccc1CN1C(=O)c2ccccc2C1=O (stereo unspecified)
O=C(O)[C@H]1CCCC[C@H]1C(=O)N1CCc2ccccc2C1CCN1C(=O)c2ccccc2C1=O (stereo partly specified)
O=C(NC[C@@H]1c2ccccc2CCN1C(=O)[C@@H]1CCCC[C@@H]1C(=O)O)c1ccccc1CO
Cc1ccc(S(=O)(=O)NNc2nc(N3CC(O)CC3C(=O)O)nc3ccccc23)cc1 (stereo unspecified)
O=C1c2ccccc2C(=O)N1C[C@@H]1c2ccccc2CCN1C(=O)C1CCCCC1
COC(=O)[C@@H]1CCCC[C@@H]1C(=O)N1CCc2ccccc2[C@@H]1CN1C(=O)c2ccccc2C1=O
O=C(O)C1CCCCC1C(=O)N1CCc2ccccc2[C@H]1C(=O)NCCc1ccccc1 (stereo partly specified)
Cc1cc(C)c(S(=O)(=O)Nc2nc(NCCO)nc3ccccc23)c(C)c1
C[C@@H](NC(=O)C1CCCC[C@H]1C(=O)O)c1ccccc1 (mixture of isomers)
O=C(O)/C=C\C(=O)N1CCc2ccccc2C1CN1C(=O)c2ccccc2C1=O (stereo unspecified)
Cc1cc(C)c(S(=O)(=O)Nc2nc(C(C(=O)OC(C)C)C(=O)C(F)(F)F)nc3ccccc23)c(C)c1 (stereo unspecified)
CCOC(=O)C(C(=O)OCC)c1nc(NS(=O)(=O)c2c(C)cc(C)cc2C)c2ccccc2n1
Cc1cc(C)c(S(=O)(=O)Nc2nc(N(C)C)nc3ccccc23)c(C)c1
Cc1ccc(S(=O)(=O)NC[C@@H]2c3ccccc3CCN2C(=O)[C@@H]2CCCC[C@@H]2C(=O)O)c(C)c1
Cc1ccc(S(=O)(=O)NNc2nc(C(C(=O)OC(C)C)C(=O)C(F)(F)F)nc3ccccc23)cc1 (stereo unspecified)
CCOC(=O)Cc1nc(NS(=O)(=O)c2c(C)cc(C)cc2C)c2ccccc2n1
O=C(O)CC(=O)N1CCc2ccccc2C1CN1C(=O)c2ccccc2C1=O (stereo unspecified)
O=S(=O)(Nc1nc(NCC2CCCCC2)nc2ccccc12)c1ccccc1
O=C1c2ccccc2C(=O)N1CC1=NCCc2ccccc21
C[C@H](NC(=O)C1CCCC[C@H]1C(=O)O)c1ccccc1 (mixture of isomers)
O=C(O)C1CCCCC1C(=O)N1CCc2ccccc2C1c1ccccc1 (stereo unspecified)
COC(=O)CNc1nc(NS(=O)(=O)c2c(C)cc(C)cc2C)c2ccccc2n1
O=C(O)[C@H]1CCCC[C@H]1C(=O)N1CCc2ccccc2[C@H]1CNS(=O)(=O)c1ccccc1
O=C(O)[C@H]1CCCC[C@H]1C(=O)N1CCC2=C(CCCC2)C1CN1C(=O)c2ccccc2C1=O (stereo partly specified)
